Results from the NIST ThermoML archive (doi:10.1016/j.fluid.2014.04.002).

Test: xn = mol fraction of the nth substance listed
Settings: 101 kPa, Liquid; for viscosity: Concentric cylinders viscometry; for mass density: Vibrating tube method

CCOC(=O)C(C)O (stereo not drawn) [DL-ethyl lactate] + CC(O)CO
Settings | mass density [kg/m3] | viscosity [mPa·s]
288.15 K, x1 = 0.1 | 1039.89 | 49.88
288.15 K, x1 = 0.2 | 1039.87 | 30.87
288.15 K, x1 = 0.3 | 1039.88 | 21.2
288.15 K, x1 = 0.3999 | 1039.91 | 14.75
288.15 K, x1 = 0.4998 | 1039.94 | 10.62
288.15 K, x1 = 0.599 | 1039.96 | 7.616
288.15 K, x1 = 0.6999 | 1039.9 | 6.169
288.15 K, x1 = 0.7994 | 1039.72 | 4.764
288.15 K, x1 = 0.8997 | 1039.32 | 4.114
288.15 K, x1 = 1 | 1039.28 | 3.207
293.15 K, x1 = 0.1 | 1036.36 | 36.91
293.15 K, x1 = 0.2 | 1035.81 | 23.41
293.15 K, x1 = 0.3 | 1035.6 | 16.34
293.15 K, x1 = 0.3999 | 1035.44 | 11.64
293.15 K, x1 = 0.4998 | 1035.3 | 8.236
293.15 K, x1 = 0.599 | 1035.15 | 6.227
293.15 K, x1 = 0.6999 | 1034.93 | 5.098
293.15 K, x1 = 0.7994 | 1034.57 | 4.153
293.15 K, x1 = 0.8997 | 1034.01 | 3.478
293.15 K, x1 = 1 | 1033.84 | 2.75
298.15 K, x1 = 0.1 | 1032.13 | 27.72
298.15 K, x1 = 0.2 | 1031.64 | 18.11
298.15 K, x1 = 0.3 | 1031.2 | 12.87
298.15 K, x1 = 0.3999 | 1030.83 | 9.303
298.15 K, x1 = 0.4998 | 1030.52 | 6.75
298.15 K, x1 = 0.599 | 1030.23 | 5.172
298.15 K, x1 = 0.6999 | 1029.94 | 4.274
298.15 K, x1 = 0.7994 | 1029.58 | 3.521
298.15 K, x1 = 0.8997 | 1029.08 | 2.978
298.15 K, x1 = 1 | 1028.39 | 2.39
303.15 K, x1 = 0.1 | 1028.31 | 21.49
303.15 K, x1 = 0.2 | 1027.6 | 14.26
303.15 K, x1 = 0.3 | 1026.98 | 10.37
303.15 K, x1 = 0.3999 | 1026.44 | 7.605
303.15 K, x1 = 0.4998 | 1025.95 | 5.615
303.15 K, x1 = 0.599 | 1025.46 | 4.35
303.15 K, x1 = 0.6999 | 1024.89 | 3.632
303.15 K, x1 = 0.7994 | 1024.21 | 3.021
303.15 K, x1 = 0.8997 | 1023.32 | 2.582
303.15 K, x1 = 1 | 1022.92 | 2.097
308.15 K, x1 = 0.1 | 1024.23 | 16.84
308.15 K, x1 = 0.2 | 1023.36 | 11.41
308.15 K, x1 = 0.3 | 1022.6 | 8.434
308.15 K, x1 = 0.3999 | 1021.9 | 6.292
308.15 K, x1 = 0.4998 | 1021.21 | 4.739
308.15 K, x1 = 0.599 | 1020.5 | 3.704
308.15 K, x1 = 0.6999 | 1019.72 | 3.118
308.15 K, x1 = 0.7994 | 1018.88 | 2.626
308.15 K, x1 = 0.8997 | 1017.93 | 2.259
308.15 K, x1 = 1 | 1017.42 | 1.858
313.15 K, x1 = 0.1 | 1020.4 | 13.41
313.15 K, x1 = 0.2 | 1019.26 | 9.264
313.15 K, x1 = 0.3 | 1018.24 | 6.949
313.15 K, x1 = 0.3999 | 1017.32 | 5.27
313.15 K, x1 = 0.4998 | 1016.47 | 4.04
313.15 K, x1 = 0.599 | 1015.64 | 3.187
313.15 K, x1 = 0.6999 | 1014.75 | 2.706
313.15 K, x1 = 0.7994 | 1013.74 | 2.302
313.15 K, x1 = 0.8997 | 1012.53 | 1.995
313.15 K, x1 = 1 | 1011.9 | 1.658
318.15 K, x1 = 0.1 | 1016.39 | 10.83
318.15 K, x1 = 0.2 | 1015.04 | 7.619
318.15 K, x1 = 0.3 | 1013.82 | 5.804
318.15 K, x1 = 0.3999 | 1012.72 | 4.465
318.15 K, x1 = 0.4998 | 1011.69 | 3.482
318.15 K, x1 = 0.599 | 1010.69 | 2.767
318.15 K, x1 = 0.6999 | 1009.63 | 2.368
318.15 K, x1 = 0.7994 | 1008.46 | 2.034
318.15 K, x1 = 0.8997 | 1007.1 | 1.774
318.15 K, x1 = 1 | 1006.36 | 1.491
323.15 K, x1 = 0.1 | 1012.34 | 8.86
323.15 K, x1 = 0.2 | 1010.78 | 6.34
323.15 K, x1 = 0.3 | 1009.36 | 4.904
323.15 K, x1 = 0.3999 | 1008.08 | 3.824
323.15 K, x1 = 0.4998 | 1006.88 | 3.03
323.15 K, x1 = 0.599 | 1005.71 | 2.423
323.15 K, x1 = 0.6999 | 1004.48 | 2.09
323.15 K, x1 = 0.7994 | 1003.15 | 1.81
323.15 K, x1 = 0.8997 | 1001.64 | 1.589
323.15 K, x1 = 1 | 1000.79 | 1.349
